In US8580965B2, “Substituted sulfonamide compounds” (Gruenenthal GmbH, priority 2006, dated 2013) one finds inhibition data, which are given here for 22 compounds.

Structures can show the parent of a compound that is named as a salt.

Assay [1] has as its target T1, human B1R receptor (bradykinin 1 receptor) (Homo sapiens, UniProt P46663).
T1 construct: host or cells: CHO K1 cells (hB1R cells)
T1 sequence (P46663 1-353): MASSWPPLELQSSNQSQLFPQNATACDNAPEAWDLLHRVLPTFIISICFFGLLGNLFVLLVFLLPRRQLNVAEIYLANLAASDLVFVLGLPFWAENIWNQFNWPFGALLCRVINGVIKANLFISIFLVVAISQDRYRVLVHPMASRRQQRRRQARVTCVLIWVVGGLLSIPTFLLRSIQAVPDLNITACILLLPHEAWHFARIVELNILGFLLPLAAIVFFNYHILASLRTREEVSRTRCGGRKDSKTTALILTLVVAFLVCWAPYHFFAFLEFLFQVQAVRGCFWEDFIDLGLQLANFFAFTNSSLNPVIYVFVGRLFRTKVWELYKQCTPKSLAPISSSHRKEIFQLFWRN
In words: FLIPR Ca2+ assay (Fluo-4) on CHO K1 cells stably transfected with the human B1R gene; % activation and % inhibition at 10 μM. Format: cell-based. To be noted: CHO-K1, test substance 10 μM; CHO K1 hB1R cells; Ca2+ inflow after 0.5 nM Lys-Des-Arg9-bradykinin; read-out: B1R antagonism, human [10 μM] % inhibition. The procedure, abridged: (§1)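 Fluo-4 Ca2+ flux on FLIPR in stable hB1R or rB1R CHO K1 lines, two additions. Agonism: 10 µM compound versus 0.5 nM Lys-Des-Arg9-BK (human) or 100 nM Des-Arg9-BK (rat); antagonism: same agonists applied 10 min later, suppression expressed against maximum achievable inhibition.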

In assay [2] the target is T2, B1R receptor of the rat (bradykinin 1 receptor) (Rattus norvegicus, UniProt P97583).
T2 construct: host or cells: CHO K1 cells (rB1R cells)
T2 sequence (P97583 1-337): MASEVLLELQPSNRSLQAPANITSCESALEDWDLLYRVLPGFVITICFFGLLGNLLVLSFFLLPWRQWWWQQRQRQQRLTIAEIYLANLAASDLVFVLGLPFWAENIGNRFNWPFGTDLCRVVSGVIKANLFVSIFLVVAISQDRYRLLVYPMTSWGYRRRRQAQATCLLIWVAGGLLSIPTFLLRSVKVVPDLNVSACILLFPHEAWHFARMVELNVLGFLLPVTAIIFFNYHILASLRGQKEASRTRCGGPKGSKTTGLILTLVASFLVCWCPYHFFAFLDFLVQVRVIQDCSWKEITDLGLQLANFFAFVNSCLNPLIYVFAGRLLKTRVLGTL
In words: FLIPR Ca2+ assay (Fluo-4) on CHO K1 cells stably transfected with the B1R gene of the rat; % activation and % inhibition at 10 μM. Format: cell-based. Conditions: CHO-K1, test substance 10 μM; CHO K1 rB1R cells; Ca2+ inflow after 100 nM Des-Arg9-bradykinin; read-out: B1R antagonism, rat [10 μM] % inhibition. The procedure, abridged: as §1

As to `O=C(COCC1CCCN1S(=O)(=O)c1c(Cl)cc(C(F)(F)F)cc1Cl)N1CCC(O)(c2ccc(Cl)c(C(F)(F)F)c2)CC1` (centres unmarked) [Example 171, 1-(4-(4-chloro-3-(trifluoromethyl)phenyl)-4-hydroxypiperidin-1-yl)-2-((1-(2,6-dichloro-4-(trifluoromethyl)phenylsulfonyl)pyrrolidin-2-yl)methoxy)ethanone], the inhibition at 10 µM was 0.56% in assay [1] and 104% in assay [2].
As for `CN(CCOCC(=O)N1CCC(O)(c2ccccn2)CC1)S(=O)(=O)c1c(Cl)cc(Cl)cc1Cl` [Example 6, 2,4,6-trichloro-N-{2-[2-(4′-hydroxy-3′,4′,5′,6′-tetrahydro-2′H-[2,4′]bipyridinyl-1′-yl)-2-oxo-ethoxy]-ethyl}-N-methyl-phenylsulfonamide], the inhibition at 10 µM in assay [1] worked out at 100%; in assay [2] it was 93.9%.
Taken in the same sequence, the figures for `Cc1cc(S(=O)(=O)N2CCCCC2COCC(=O)N2CCC(O)(c3ccccc3)CC2)c(C)cc1Cl` (centres unmarked) [Example 158, 2-((1-(4-chloro-2,5-dimethylphenylsulfonyl)piperidin-2-yl)methoxy)-1-(4-hydroxy-4-phenylpiperidin-1-yl)ethanone] were 44.9% and 105%.
`O=C(COCC1CCCCN1S(=O)(=O)c1ccccc1C(F)(F)F)N1CCC(O)(c2ccccc2)CC1` (centres unmarked) [Example 175, 1-(4-hydroxy-4-phenylpiperidin-1-yl)-2-((1-(2-(trifluoromethyl)phenylsulfonyl)piperidin-2-yl)methoxy)ethanone]: the inhibition at 10 µM in assay [1] was 86%; in assay [2] it was 104%.
On to `COc1cc(C)c(S(=O)(=O)N(CCOCC(=O)N2CCC(O)(c3ccc(Br)cc3)CC2)CC2CC2)c(C)c1C` [Example 205, N-(2-(2-(4-(4-bromophenyl)-4-hydroxypiperidin-1-yl)-2-oxoethoxy)ethyl)-N-(cyclopropylmethyl)-4-methoxy-2,3,6-trimethylphenylsulfonamide], for which the inhibition at 10 µM in assay [1] came to 106%; in assay [2] it was 100%.
On to `Cc1cc(S(=O)(=O)N(C)CCCC(=O)N2CCC(O)(c3cccnc3)CC2)c(C)cc1Cl` [Example 113, 4-chloro-N-(4-(4-hydroxy-4-(pyridin-3-yl)piperidin-1-yl)-4-oxobutyl)-N,2,5-trimethylphenylsulfonamide hydrochloride], for which the results for the inhibition at 10 µM in assay [1] and in assay [2] were 94.8% and 51.1%, respectively.
Taken in the same sequence, the figures for `COc1ccc(S(=O)(=O)N2CCC(OCC(=O)N3CCC(O)(Cc4ccccc4)CC3)(c3ccccc3)CC2)cc1` [Example 82, 1-(4-benzyl-4-hydroxy-piperidin-1-yl)-2-[1-(4-methoxy-phenylsulfonyl)-4-phenyl-piperidin-4-yloxy]-ethanone] were 9.32% and 17.9%.
Taken in the same sequence, the figures for `COc1cc(C)c(S(=O)(=O)N2CCCCC2COCC(=O)N2CCC(O)(c3ccc(Cl)cc3)CC2)c(C)c1` (centres unmarked) [Example 242, 1-(4-(4-chlorophenyl)-4-hydroxypiperidin-1-yl)-2-((1-(4-methoxy-2,6-dimethylphenylsulfonyl)piperidin-2-yl)methoxy)ethanone] were 101% and 98.4%.
Turning to `O=C(COCC1CCCN1S(=O)(=O)c1cc(Cl)sc1Cl)N1CCC(O)(c2ccc(Br)cc2)CC1` (centres unmarked) [Example 224, 1-(4-(4-bromophenyl)-4-hydroxypiperidin-1-yl)-2-((1-(2,5-dichlorothiophen-3-ylsulfonyl)pyrrolidin-2-yl)methoxy)ethanone], the values for the inhibition at 10 µM in assay [1] and in assay [2] were 49.1% and 102%, respectively.
Regarding `COc1cc(C)c(S(=O)(=O)N(CCOCC(=O)N2CCC(O)(Cc3ccccc3)CC2)CC(C)C)c(C)c1C` [Example 211, N-(2-(2-(4-benzyl-4-hydroxypiperidin-1-yl)-2-oxoethoxy)ethyl)-N-isobutyl-4-methoxy-2,3,6-trimethylphenylsulfonamide], the inhibition at 10 µM in assay [1] was determined as 99.6%; in assay [2] it was 100%.
Taken in the same sequence, the figures for `O=C(COCC1CCCCN1S(=O)(=O)c1ccccc1C(F)(F)F)N1CCC(O)(c2ccc(Br)cc2)CC1` (centres unmarked) [Example 174, 1-(4-(4-bromophenyl)-4-hydroxypiperidin-1-yl)-2-((1-(2-(trifluoromethyl)phenylsulfonyl)piperidin-2-yl)methoxy)ethanone] were 102% and 105%.
The matching figures for `O=C(CCC1CCCCN1S(=O)(=O)c1ccc(Cl)cc1Cl)N1CCC(O)(c2cccnc2)CC1` (centres unmarked) [Example 118, 3-(1-(2,4-dichlorophenylsulfonyl)piperidin-2-yl)-1-(4-hydroxy-4-(pyridin-3-yl)piperidin-1-yl)propan-1-one]: 101% and 97.9%.
Taken in the same sequence, the figures for `COc1cc(C)c(S(=O)(=O)N(C)CCOCCC(=O)N2CCC(O)(c3ccccc3)CC2)c(C)c1` [Example 276, N-(2-(3-(4-hydroxy-4-phenylpiperidin-1-yl)-3-oxopropoxy)ethyl)-4-methoxy-N,2,6-trimethylphenylsulfonamide] were 70.7% and 88.3%.
Take `COc1cc(C)c(S(=O)(=O)N2CCCCC2COCC(=O)N2CCC(O)(c3ccncc3)CC2)c(C)c1` (centres unmarked) [Example 144, 1-(4-hydroxy-4-(pyridin-4-yl)piperidin-1-yl)-2-((1-(4-methoxy-2,6-dimethylphenylsulfonyl)piperidin-2-yl)methoxy)ethanone]: the inhibition at 10 µM was determined as 104% in assay [1] and 101% in assay [2].
With `COc1cc(C)c(S(=O)(=O)N2CCCCC2CCC(=O)N2CCC(O)(c3cccnc3)CC2)c(C)c1` (centres unmarked) [Example 112, 1-(4-hydroxy-4-(pyridin-3-yl)piperidin-1-yl)-3-(1-(4-methoxy-2,6-dimethylphenylsulfonyl)piperidin-2-yl)propan-1-one], the inhibition at 10 µM was found to be 106% in assay [1] and 101% in assay [2].
Taken in the same sequence, the figures for `O=C(COC1CCN(S(=O)(=O)c2c(Cl)cc(Cl)cc2Cl)C1)N1CCC(O)(c2ccc(Cl)cc2)CC1` (centres unmarked) [Example 107, 1-(4-(4-chlorophenyl)-4-hydroxypiperidin-1-yl)-2-(1-(2,4,6-trichlorophenylsulfonyl)pyrrolidin-3-yloxy)ethanone] were 75.5% and 71.9%.
The matching figures for `O=C(COCC1CCCN1S(=O)(=O)c1c(Cl)cccc1Cl)N1CCC(O)(Cc2ccccc2)CC1` (centres unmarked) [Example 221, 1-(4-benzyl-4-hydroxypiperidin-1-yl)-2-((1-(2,6-dichlorophenylsulfonyl)pyrrolidin-2-yl)methoxy)ethanone]: 23.5% and 89.5%.
`CN(CCOCC(=O)N1CCC(O)(c2cccnc2)CC1)S(=O)(=O)c1ccc(Cl)s1` [Example 102, 5-chloro-thiophene-2-sulfonic acid {2-[2-(4′-hydroxy-3′,4′,5′,6′-tetrahydro-2′H-[3,4′]bipyridinyl-1′-yl)-2-oxo-ethoxy]-ethyl}-methyl-amide]: the values for the inhibition at 10 µM in assay [1] and in assay [2] were 14.2% and 16.1%, respectively.
For the compound `COc1cc(C)c(S(=O)(=O)N2CCCCC2COCC(=O)N2CCC(O)(c3cccc(F)c3)CC2)c(C)c1` (centres unmarked) [Example 142, 1-(4-(3-fluorophenyl)-4-hydroxypiperidin-1-yl)-2-((1-(4-methoxy-2,6-dimethylphenylsulfonyl)piperidin-2-yl)methoxy)ethanone], the inhibition at 10 µM was 103% in assay [1] and 100% in assay [2].
Regarding `Cc1ccc(F)cc1S(=O)(=O)N(C)CCOCC(=O)N1CCC(O)(c2ccc(Cl)cc2)CC1` [Example 61, N-(2-(2-(4-(4-chlorophenyl)-4-hydroxypiperidin-1-yl)-2-oxoethoxy)ethyl)-5-fluoro-N,2-dimethylphenylsulfonamide], the inhibition at 10 µM in assay [1] was 56.2%; in assay [2], 86.4%.
Consider `COc1cc(C)c(S(=O)(=O)N(CCOCC(=O)N2CCC(O)(c3ccccc3)CC2)CC2CC2)c(C)c1C` [Example 206, N-(cyclopropylmethyl)-N-(2-(2-(4-hydroxy-4-phenylpiperidin-1-yl)-2-oxoethoxy)ethyl)-4-methoxy-2,3,6-trimethylphenylsulfonamide], for which the inhibition at 10 µM in assay [1] worked out at 105%; in assay [2], 100%.
For the compound `CN(CCCC(=O)N1CCC(O)(c2cccnc2)CC1)S(=O)(=O)c1ccc2ccccc2c1` [Example 115, N-(4-(4-hydroxy-4-(pyridin-3-yl)piperidin-1-yl)-4-oxobutyl)-N-methylnaphthalene-2-sulfonamide], the values for the inhibition at 10 µM in assay [1] and in assay [2] were 55.2% and 44.3%, respectively.

The inhibition is the relative decrease from the control value, in per cent.
